Measured values: a melting point compilation (Tetko et al.; mined from patent text by program, amines drawn as free bases though some values may be those of a salt)

Compared with `COC(=O)C=Cc1cc([N+](=O)[O-])ccc1Cl`, `COc1ccc(NC(C)=O)c(Sc2ccc(C#N)cc2[N+](=O)[O-])c1` is higher in melting point: 159 to 162 °C for the first, 195 to 199 °C for the second.

Compared with `Cc1nc(N)sc1-c1ccnc(Nc2ccc(N3CCSCC3)cc2)n1`, `Fc1ccc2c(CN3CCN(c4ccc(Cl)cc4)CC3)n[nH]c2c1` is higher in melting point: 180 to 182 °C for the first, 217 to 219 °C for the second.

First: Fc1cccc(F)c1-c1ccncc1
Second: Cn1cc(C(=O)c2ccc(F)cc2)cc1C(=O)c1ccncc1
The melting point of the first is lower: 113 to 114 °C for the first, 155 to 157 °C for the second.

First: N#Cc1nn(-c2c(Cl)cc(C(F)(F)F)cc2Cl)c(N)c1-c1ccc(Cl)cc1
Second: Fc1ccc2nc(-c3ccc(Cl)cc3)cc(Cl)c2c1
The melting point of the first is higher: 235 to 237 °C for the first, 169 to 172 °C for the second.

First: O=C(O)CCCCCc1c[nH]c2ccccc12
Second: NCCc1c[nH]c2ccc(NC(N)=O)cc12
The melting point of the first is lower: 124 to 126 °C for the first, 188 to 190 °C for the second.

Compared with `COc1c(C(C)=O)cnc2c([N+](=O)[O-])cccc12`, `O=C(O)c1cccc([N+](=O)[O-])c1Nc1ccc(Br)cc1` is higher in melting point: 100 to 105 °C for the first, 194 to 196 °C for the second.

First: Cc1nc(C#Cc2cncc(CO)c2)cs1
Second: C#CCC(C(=COC)c1cccnc1)c1ccc(Cl)cc1Cl (stereo not drawn)
The melting point of the first is higher: 98 to 99 °C for the first, 96 to 97 °C for the second.

First: OC1(COc2ccccc2Cc2ccccc2)CN2CCC1CC2 (stereo not drawn)
Second: O=C(Nc1cccc(-c2nnn[nH]2)c1)C(=O)N1CCC(Cc2ccccc2)CC1
The melting point of the first is lower: 71 to 73 °C for the first, 159 to 161 °C for the second.

Compared with `CCCc1c(OCc2cccn3c(=O)c(CC(=O)OCC)cnc23)ccc(C(C)=O)c1O`, `CCc1cnc2c(NC(=O)c3c(Cl)cccc3Cl)cccc2c1C(=O)O` is higher in melting point: 134 to 135 °C for the first, 231 to 233 °C for the second.

First: Cc1c(Br)c2c(c(C)c1NC(=O)CC(C)(C)C)C(c1ccc(C(C)C)cc1)CS2 (stereo not drawn)
Second: Cc1cc(NC(=O)OC(C)(C)C)c(N)cc1-c1ccc(F)cc1
The melting point of the first is higher: 207 to 208 °C for the first, 112 °C for the second.

Compared with `CCN1C(=O)Cc2cc3occc3cc21`, `CCOC(=O)c1c2ccc(Cl)cc2c(-c2ccccc2)n1C` is lower in melting point: 112 to 113 °C for the first, 94 to 96 °C for the second.

First: CC(C)(C)CCNC(=O)c1ccc(CC(C)(C)C)cc1
Second: CC(C)(C)c1ccc(C(=O)NCc2ccc3c(c2)C(=O)N(C2CCC(=O)NC2=O)C3=O)cc1 (stereo not drawn)
The melting point of the first is lower: 124 to 126 °C for the first, 164 to 166 °C for the second.

Compared with `Cc1ccc(F)cc1C(=O)Nc1ccc(C(=O)N2Cc3cccn3Cc3ccccc32)c(Cl)c1`, `O=C(Nc1cccc2c(N3CCN(Cc4ccccc4)C3=O)ccnc12)c1c(Cl)cccc1Cl` is lower in melting point: 191 to 195 °C for the first, 178 to 191 °C for the second.

First: COC(=O)c1cc(C(C)(C)C#N)cc(C(C)(C)C#N)c1
Second: COC(=O)C(=Cc1cc(OC)c(OC)cc1Br)c1ccccc1C(=O)OC
The melting point of the first is lower: 83 to 85 °C for the first, 117 to 119 °C for the second.

First: CC(=O)Nc1nsnc1-c1c(Cl)cccc1Cl
Second: CC(=O)CSC1=CC(=O)CC(c2ccccc2Cl)C1 (stereo not drawn)
The melting point of the first is higher: 180 to 185 °C for the first, 81 to 82 °C for the second.

First: Cc1ccc(C(=O)Nc2nc3ccccc3c(=O)n2C)cc1
Second: CC(=O)Nc1ccc(-c2nn(C(C)=O)c3c2Cc2ccccc2-3)cc1
The melting point of the first is lower: 189 to 191 °C for the first, 245 to 246 °C for the second.

First: O=C(O)c1ccc(N2CCCC2)c(NC(=O)C(CS)Cc2ccccc2)c1 (stereo not drawn)
Second: O=C(Nc1cc(C(F)(F)F)ccc1N1CCCC1)c1ccncc1
The melting point of the first is higher: 229 to 234 °C for the first, 134 to 135 °C for the second.

First: CCCCCNc1nc(C)c(C(=O)c2ccc(N)c([N+](=O)[O-])c2)s1
Second: CCOC(=O)c1cnc2cc(NC(C)=O)c(F)cc2c1O
The melting point of the first is lower: 165 to 169 °C for the first, 320 °C for the second.

First: CN1CCC(C2c3sccc3CCn3ccnc32)CC1 (stereo not drawn)
Second: COc1ccnc(N2CCN(C(=O)c3ccco3)CC2)n1
The melting point of the first is higher: 121 °C for the first, 85 to 86 °C for the second.

First: COc1ccc(-c2ccc(OC)c(C34CC5CC(CC(C5)C3)C4)c2)cc1C12CC3CC(CC(C3)C1)C2
Second: Cc1cc2c(cc1-c1ccc(O)c(C=O)c1)C(C)(C)CCC2(C)C
The melting point of the first is higher: 288 to 289 °C for the first, 138 to 139 °C for the second.

First: CN(C)CCCn1nc2c(c1-c1ccccc1)CCc1ccccc1-2
Second: C1=c2ccccc2=C2N=c3ccc4ccccc4c3=C2C1
The melting point of the first is lower: 60 to 62 °C for the first, 238 °C for the second.

First: C[C@H](C1CCCCC1)N1C(=O)c2c(F)c(F)c(F)c(F)c2C1=O
Second: CS(=O)(=O)c1ccc(-c2cnn(CC(F)(F)F)c(=O)c2C2CCCCC2)cc1
The melting point of the first is lower: 147 to 148 °C for the first, 215 to 218 °C for the second.

First: CCc1noc(-c2ncn(-c3cccc(Oc4ccc(Cl)cc4)c3)c2COC)n1
Second: COc1ccc(-c2cc(C(N)=O)c(=O)n(CC=Cc3ccc(Cl)cc3)n2)cc1
The melting point of the first is lower: 68 to 70 °C for the first, 195 to 196 °C for the second.

Compared with `CCOC(COc1cccc2c1OCCO2)OCC`, `CCCCCCOc1ccc(Nc2cc(Nc3ccc4c(c3)OCCO4)ncc2F)cc1` is higher in melting point: 73.1 °C for the first, 124 to 125 °C for the second.

Compared with `CCCCCCCCCCCCCCCCOC(=O)CCCCCCCCCCCCC`, `CCCCCc1ncc(C(=O)OCC)c(NCc2ccc(-c3ccccc3-c3nnnn3C(c3ccccc3)(c3ccccc3)c3ccccc3)cc2)n1` is higher in melting point: 54 to 56 °C for the first, 107 to 108 °C for the second.

First: CC12C=CC(=O)C=C1CCC1C2=CCC2(C)C1CCC2(O)C(=O)CCl (stereo not drawn)
Second: O=CNCC1CN(c2c(F)cc3c(=O)c(C(=O)O)cn(C4CC4)c3c2F)CCO1 (stereo not drawn)
The melting point of the first is lower: 205 to 206 °C for the first, 210 to 213 °C for the second.

First: O=C(Oc1ccccc1)N1CCN2C(=O)OC(c3ccccc3)(c3ccccc3)C2C1 (stereo not drawn)
Second: O[C@@H](c1n[nH]cc1-c1ccccc1)[C@H](CCN1CCC(O)(c2ccccc2)CC1)c1ccc(Cl)c(Cl)c1 (racemic)
The melting point of the first is higher: 189 to 191 °C for the first, 122 to 124 °C for the second.

First: CS(=O)(=O)c1ccc(-c2cnn(-c3ccc(Cl)cc3)c(=O)c2-c2ccc(F)cc2)cc1
Second: O=S(=O)(N[C@H](Cc1ccc(C(F)(F)F)cc1)[C@@H](O)c1ccc(F)cc1)c1cccc2ccccc12 (racemic)
The melting point of the first is higher: 214 to 216 °C for the first, 176 to 177 °C for the second.

`Cc1ccc(S(=O)(=O)n2c(=O)[nH]c3cc(Cl)ccc3c2=O)cc1C` and `Cc1ccc2c(c1)Oc1ccc([N+](=O)[O-])cc1C(=O)N2` cannot be ordered by melting point: greater than 250 °C for the first, 264 to 266 °C for the second.

First: COc1ccc(Nc2ccc(Nc3ncnc4ccsc34)cc2)cc1
Second: COc1ccc(-n2c(-c3sc(Nc4ccccc4)nc3-c3ccccc3)nc3ccccc3c2=O)cc1
The melting point of the first is higher: 181 to 186 °C for the first, 135 to 137 °C for the second.

First: CCCc1cc(Cl)c2oc(-c3ccccc3)c(C)c2c1O
Second: CC(C)n1nc(-c2cc(C#N)c(C(N)=O)nc2-c2ccccc2)ccc1=O
The melting point of the first is lower: 102 to 104 °C for the first, 221 to 223 °C for the second.

`COc1ccc2c(-c3c(-c4ccccn4)nn4c3CCCCC4)ccnc2c1` and `CCc1nc2cnc3cc(OCc4ccccc4)ccc3c2n1CC(C)C` cannot be ordered by melting point: 127 to 129 °C for the first, 127 °C for the second.

Compared with `CC(=O)NCCS(=O)C1(Cl)CC2CC(=O)N2C1C(=O)OCc1ccccc1` (stereo not drawn), `CC(C)COC(NC(=O)OCc1ccccc1)C(=O)O` (stereo not drawn) is lower in melting point: 89 to 93 °C for the first, 66 to 68 °C for the second.

First: CCOC(=O)C(=O)NC1N=C2C(=Cc3ccccc32)S1 (stereo not drawn)
Second: CN(C)C1=NS(=O)(=O)c2ccccc21
The melting point of the first is lower: 226 to 228 °C for the first, 323 to 324 °C for the second.

Compared with `CC(C)C(=O)NCc1cccc2c1C(=O)N(C1CCC(=O)NC1=O)C2=O` (stereo not drawn), `CC(c1ccc2c(c1)C(=O)c1ccccc1C2=O)N1CCN(C)CC1` (stereo not drawn) is lower in melting point: 218 to 220 °C for the first, 98.9 to 102 °C for the second.

First: CC1(C)Oc2ccc(C#N)cc2C(NC(=O)C(N)c2ccccc2)C1O (stereo not drawn)
Second: N#CNc1ccc(OCc2ccccc2)cc1
The melting point of the first is higher: 109 to 111 °C for the first, 105 °C for the second.

First: CC(=O)Oc1ccc(-c2cnc(NC(=O)Cc3ccccc3)c(Cc3ccccc3)n2)cc1
Second: CC(=O)c1cc(S(=O)(=O)c2ccccc2)ccc1OCc1ccccc1
The melting point of the first is higher: 228 to 231 °C for the first, 80.5 to 82.4 °C for the second.

First: CCCN(Cc1ccc(-c2ccccc2-c2nnnn2C(c2ccccc2)(c2ccccc2)c2ccccc2)cc1)c1ncccc1C(=O)OCC
Second: c1ccc(Cn2cccc2-c2nc(Nc3ccc(-c4ccccc4)cc3)nc(Nc3ccc(-c4ccccc4)cc3)n2)cc1
The melting point of the first is lower: 129 to 131 °C for the first, 185 to 186 °C for the second.

First: CS(=O)(=O)c1ccc(-c2oncc2CCCO)cc1
Second: CS(=O)(=O)N(Cc1cccnc1)c1ccccc1OCC(F)(F)F
The melting point of the first is higher: 125 to 126 °C for the first, 80 to 84 °C for the second.

First: CCc1[nH]c2ccc(OC)cc2c1/C=C/C(=O)c1ccncc1
Second: CC(C)(C)[Si](Oc1ccc2[nH]c(=O)oc(=O)c2c1)(c1ccccc1)c1ccccc1
The melting point of the first is higher: 214 to 215 °C for the first, 185 °C for the second.

First: COc1cccc(-c2nc3c([nH]2)C(C)(C)CS(=O)(=O)CC3(C)C)c1
Second: COc1ccc(/C(=C\C=C\C(=O)O)C2CC2)cc1
The melting point of the first is higher: 217 to 219 °C for the first, 154 to 156 °C for the second.

First: CC(C)n1nc(COc2ccccc2CC(=O)O)cc1OCc1ccc2ccccc2n1
Second: O=C(c1ccccc1)c1sc2cc(O)ccc2c1-c1ccccc1
The melting point of the first is lower: 116 to 117 °C for the first, 187 to 190 °C for the second.

First: CNCC(=O)NC(=O)OC(C)(C)C
Second: CC(C)(C)OC(=O)NC1CCCOCC=CC2CC2(C(=O)NS(=O)(=O)C2CC2)NC(=O)C2CC(OCc3ccccc3)CN2C1=O (stereo not drawn)
The melting point of the first is lower: 103 °C for the first, 147 to 149 °C for the second.

First: CC1(C(=O)CC#N)CC1
Second: O=C(O)C(Cl)C(=O)CCl (stereo not drawn)
The melting point of the first is lower: 32 to 33 °C for the first, 53 to 54 °C for the second.

First: COC(=O)CC[C@H](NC(=O)c1ccc(C#Cn2cnc3nc(C)c(OC(=O)C(C)(C)C)c-3c2O)cc1)C(=O)OC
Second: CCOC(=O)c1cc(O)c2c(n1)c(C)cc1c(O)cc(C(=O)OCC)nc12
The melting point of the first is lower: 163 °C for the first, 198 to 200 °C for the second.

Compared with `CC(C)(C)n1nnc(-c2ccc(CNc3n[nH]c4ncnc(Nc5cccc(Cl)c5)c34)cc2)n1`, `Clc1nc(-c2ccc3c(c2)CCO3)nc2ccccc12` is higher in melting point: 168 to 170 °C for the first, 186 to 192 °C for the second.

First: CC(Cn1ccnc1)OCC(O)(P(=O)(O)O)P(=O)(O)O (stereo not drawn)
Second: CC(COc1ccc(-n2cncn2)cc1)(NS(=O)(=O)Cc1ccccc1)C(N)=O (stereo not drawn)
The melting point of the first is lower: 135 to 140 °C for the first, 195 to 198 °C for the second.

First: N#Cc1cccn1-c1cc(C(=O)N=C(N)N)cc(C(=O)N=C(N)N)c1
Second: CC(C)c1ccc(N(Cc2cnn(CCO)c2)C(=O)C2CCCc3c(O)cccc32)cc1 (stereo not drawn)
The melting point of the first is higher: 251 to 253 °C for the first, 110 to 114 °C for the second.

First: O=c1[nH]c2ccccc2cc1CN1CCN(c2ccc(Cl)cc2)CC1
Second: COc1c(N2C[C@@H](C)N[C@@H](C)C2)c(F)cc2c(=O)c(C(=O)O)cn([C@@H]3C[C@@H]3F)c12
The melting point of the first is higher: 256 to 259 °C for the first, 129 to 131 °C for the second.
